In ChEMBL document CHEMBL1201862, “PubChem BioAssay data set” (2004):
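Cells were grown in 96-well plates and exposed to each compound for 48 hours at five concentrations; endpoints were interpolated linearly between bracketing concentrations, or set to the highest concentration if not reached. At the GI50, growth is halved.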 Active and inactive are the calls of the source. Rule as the data show it: active = GI50 up to about 1.1 µM and inactive = higher.

Columns and labels:
Assay in all cases: NCI-60 cell line screen, 48 h
NCI-H460 = system: NCI-H460
RXF 393 = system: RXF 393
COLO 205 = system: COLO 205
DMS-114 = system: DMS-114
A498 = system: A498
HT-29 = system: HT-29
OVCAR-4 = system: OVCAR-4
KM12 = system: KM12
XF498 = system: XF498
SN12C = system: SN12C
A549 = system: A549
SK-MEL-2 = system: SK-MEL-2
MCF7 = system: MCF7
SK-MEL-28 = system: SK-MEL-28
HCC 2998 = system: HCC 2998
SF-539 = system: SF-539
K562 = system: K562
CCRF-CEM = system: CCRF-CEM
Malme-3M = system: Malme-3M
LOX IMVI = system: LOX IMVI

Measured: GI50

CCC1OC(=O)C(C)C(OC2CC(C)(O)C(O)C(C)O2)C(C)C(O)C(C)(O)CC(C)C(=O)C(C)C(O)C1C (stereo not given)
inactive: NCI-H460 > 300 µM | RXF 393 > 300 µM | COLO 205 > 300 µM | DMS-114 > 300 µM | A498 > 267 µM | HT-29 > 300 µM | OVCAR-4 > 300 µM | KM12 225 µM | XF498 > 300 µM | SN12C > 300 µM | A549 > 300 µM | SK-MEL-2 > 300 µM | MCF7 > 300 µM | SK-MEL-28 > 300 µM | HCC 2998 > 300 µM | SF-539 > 300 µM | K562 > 300 µM | CCRF-CEM > 300 µM | Malme-3M > 300 µM | LOX IMVI > 300 µM

CSc1sc(=S)sc1SC
inactive: NCI-H460 > 100 µM | RXF 393 > 100 µM | COLO 205 > 100 µM | DMS-114 > 100 µM | A498 > 100 µM | HT-29 > 100 µM | OVCAR-4 > 100 µM | KM12 > 100 µM | XF498 > 100 µM | SN12C > 100 µM | A549 > 100 µM | SK-MEL-2 > 31.6 µM | MCF7 > 100 µM | SK-MEL-28 > 100 µM | HCC 2998 > 100 µM | SF-539 > 100 µM | K562 > 100 µM | CCRF-CEM > 100 µM | Malme-3M > 100 µM | LOX IMVI > 100 µM

C=C1C(=O)OC2CC(C)C3C4OC4C(O)C3(C)C(O)C12 (stereo not given)
inactive: NCI-H460 19 µM | RXF 393 22.1 µM | COLO 205 16.3 µM | DMS-114 12.5 µM | A498 16 µM | HT-29 27.5 µM | OVCAR-4 26.5 µM | KM12 23.5 µM | XF498 22.2 µM | SN12C 23 µM | A549 53.5 µM | SK-MEL-2 25.9 µM | MCF7 20.7 µM | SK-MEL-28 23.6 µM | HCC 2998 30.8 µM | SF-539 17.9 µM | K562 20.6 µM | CCRF-CEM 12 µM | Malme-3M 20.9 µM | LOX IMVI 14 µM

CCC/C=C/C=C\C(=O)O[C@@H]1[C@@H](C)[C@]2(O)[C@@H]3C=C(C)C(=O)[C@H]3CC(COC(C)=O)=C[C@H]2[C@@H]2C(C)(C)[C@]12OC(C)=O
inactive: NCI-H460 1.61 µM | RXF 393 47.5 µM | COLO 205 1.74 µM | DMS-114 45.1 µM | A498 1.99 µM | HT-29 40 µM | OVCAR-4 30.2 µM | KM12 47.9 µM | XF498 7.29 µM | SN12C 40.3 µM | A549 4.59 µM | SK-MEL-2 43.3 µM | MCF7 37.8 µM | SK-MEL-28 39.4 µM | HCC 2998 14.8 µM | SF-539 41.4 µM | K562 2.49 µM | CCRF-CEM 3.56 µM | Malme-3M 33.2 µM | LOX IMVI 16.8 µM
